The values that follow come from publication PMC3779320, “Bub3 reads phosphorylated MELT repeats to promote spindle assembly checkpoint signaling” (eLife, 2013).

Square brackets hold non-standard residues; d marks the D form. Peptide text beside a SMILES is read from it. pT = C[C@@H](OP(=O)(O)O)[C@H](N)C(=O)O

For the assay, the target named is T1, Bub1^289–359–Bub3^R217A (Saccharomyces cerevisiae, UniProt P26449+P41695, R217A).
T1 construct: S. cerevisiae Bub1^289–359 and for full length Bub3; GST (N, cleaved yes); made in house; host or cells: E. coli BL21 DE3 plysS
T1 sequence (P26449 1-341 R217A): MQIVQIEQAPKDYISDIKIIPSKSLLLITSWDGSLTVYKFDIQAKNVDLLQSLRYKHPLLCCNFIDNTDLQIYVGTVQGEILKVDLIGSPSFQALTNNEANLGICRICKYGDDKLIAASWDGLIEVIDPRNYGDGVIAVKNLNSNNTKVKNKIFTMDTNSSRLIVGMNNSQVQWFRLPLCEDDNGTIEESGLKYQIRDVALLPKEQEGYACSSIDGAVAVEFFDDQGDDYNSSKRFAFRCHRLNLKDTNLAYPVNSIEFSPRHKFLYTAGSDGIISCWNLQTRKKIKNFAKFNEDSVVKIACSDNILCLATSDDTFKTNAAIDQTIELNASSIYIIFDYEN
T1 sequence (P41695 289-359): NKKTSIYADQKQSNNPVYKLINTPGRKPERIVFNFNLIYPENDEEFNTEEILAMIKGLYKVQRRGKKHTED
Nature of the assay: ITC binding to Bub1^289–359–Bub3^R217A. The note with it: Bub3 R217A compared with wild type (13- to 25-fold for R217A or R239A). The text has this:
Because the presence of a phosphate on Thr172^Spc105/Knl1 is essential for high-affinity binding of ScBub1^289–359–Bub3 to MELT^P peptides (Figure 1), we concentrated our mutational analysis on two residues that are directly implicated in the recognition of the peptide’s phospho-threonine, Arg217^Bub3 and Arg239^Bub3. Positively charged residues are invariant at these positions of the Bub3 alignment (Figure 2C). We generated single or double alanine mutants of Arg217^Bub3 and Arg239^Bub3 in the context of ScBub1^289–359–Bub3 and tested their binding affinity for the MELT2^P peptide by ITC.
cDNA sequences coding for S. cerevisiae Bub1^289–359 and for full length Bub3 were subcloned in the first and second cassettes of pGEX-6P-2rbs vector ([Ciferri et al., 2005]). In this construct, the cDNA encoding Bub1^289–359 was sub-cloned in frame with the gene encoding GST and a cleavage site for PreScission protease, and was translated from the first ribosome-binding site (rbs). Untagged Bub3 was subcloned downstream of the second rbs in the same vector. Expression was carried out in BL21 DE3 plysS cells in LB medium by auto-induction with 0.3% lactose at 18°C for approximately 16 hr. […]
Binding isotherm was measured at 25°C by isothermal titration calorimetry on a MicroCal ITC200 device (GE Healthcare, Piscataway, NJ). […]

Consider `CC[C@H](C)[C@H](NC(=O)[C@H](CO)NC(=O)[C@H](CCCNC(=N)N)NC(=O)[C@@H]1CCCN1C(=O)[C@H](Cc1ccccc1)NC(=O)[C@@H](NC(=O)[C@H](CCC(=O)O)NC(=O)[C@@H](NC(=O)[C@H](CCSC)NC(=O)[C@H](CCC(=O)O)NC(=O)[C@H](CCSC)NC(=O)[C@H](CO)NC(=O)[C@@H](NC(=O)[C@@H]1CCCN1C(=O)[C@H](CC(=O)O)NC(C)=O)[C@@H](C)O)[C@@H](C)OP(=O)(O)O)C(C)C)C(=O)N[C@@H](CCCNC(=N)N)C(=O)N[C@@H](CCC(N)=O)C(=O)N[C@@H](CCCCN)C(=O)N[C@@H](CC(N)=O)C(N)=O` [MELT2^P] (Ac-DPTSMEM[pT]EVFPRSIRQKN-NH2; N-terminus and C-terminus assumed), for which the “fold reduction in binding affinity” value came to 13 fold.
